Source: patent US20060111286A1, “Method of modulating endothelial cell activity” (priority 2002, published 2006)
Entries after “also recorded” stand apart in the source; their conditions may differ. Where two headings read alike, the source gives them in different places.

Assays:
[1] = system: human umbilical vein endothelial cells; experiment: Endothelial permeability assay: passage of FITC-conjugated dextran through thrombin-treated endothelial cell monolayers in transwells; format: cell-based; conditions: then thrombin 0.2 U/ml
Procedure: Cells were used at passage 4 or less. For infection with adenoviral constructs, cells were grown to 80% confluence and exposed to 2.5×10^6 plaque forming units/25 cm^2 culture area for 2 hours in M119 medium with 2% FCS and a further 22 hours with 20% FCS.
Endothelial cells (10^5) were cultured in transwells (3 μ-pore size, Corning Costar Corp, Cambridge, Mass., USA) for 24 hours in complete medium and then in 2% FCS medium for a further 24 hours. Cells were pre-treated with either bisindolylmaleimide I (10 nM or 6 μM), Calphostin C (100 nM), chelerythrine chloride (1 μM), H-89 (50 nM) or angiopoietin-1 (0.1 μg/ml), as required. FITC-conjugated dextran (0.2 μg) was added to the upper chamber of all wells and cells were then treated with thrombin (0.2 U/ml). […] Adenovirus infected ECs were plated on to transwells 24 hours after the above infection procedure and treated in the same manner as uninfected cells.

protein kinase Cζ [2] = experiment: Immunofluorescence staining of protein kinase Cζ localisation in endothelial cell monolayers; format: cell-based, human; conditions: for effect on thrombin stimulated protein kinase Cζ relocalisation to the membrane: then thrombin 0.2 U/ml
Procedure: (§1) Human umbilical vein endothelial cells were grown in M119 medium with 20% foetal calf serum (FCS) as described (Litwin, M., Clark, K., Noack, L., Furze, J., Berndt, M., Albelda, S., Vadas, M., Gamble, J. (1997) J Cell Biol. 139:219-28). Cells were used at passage 4 or less. For infection with adenoviral constructs, cells were grown to 80% confluence and exposed to 2.5×10^6 plaque forming units/25 cm^2 culture area for 2 hours in M119 medium with 2% FCS and a further 22 hours with 20% FCS.
(§2) 6×10^4 endothelial cells were cultured in fibronectin coated glass LabTek chamber slides (Nalge Nunc International, Naperville, Ill., USA) and incubated for 3 days prior to staining. Cells were then treated with angiopoietin-1, thrombin and/or bisindolylmaleimnide I, as required. Cells were washed once in PBS, fixed in 4% paraformnaldehyde/PBS for 5 minutes, permeabilized with acetone for 5 min at −20° C. and then washed twice with PBS. The fixed cells were incubated with rabbit anti-protein kinase Cζ immunoaffmity purified IgG or anti-protein kinase Cλ (BD Transduction Laboratories, San Diego, Calif., USA) overnight at 4° C. followed by FITC-conjugated anti-rabbit antibody (Rockland, Gilbertsville Pa., USA). Coverslips were mounted using fluorescent microscopy mounting medium (Dako Corp., Carpinteria, Calif., USA). Cells were imaged by epifluorescent microscopy on an Olympus BX-51 microscope (Olympus, Hamburg, Germany) equipped with excitation filters for fluorescein (494 nm) acquired to a Photometrics Cool Snap FX charge-coupled device camera (Roper Scientific GmbH, Germany). Images were adjusted for brightness and contrast using V^++ software (Digital Optics Ltd., Aucldand, New Zealand).

protein kinase Cζ [3] = experiment: Immunoblotting for phosphorylated Thr410 of over-expressed protein kinase Cζ in endothelial cells; format: cell-based, human; conditions: for effect on thrombin stimulated protein kinase Cζ phosphorylation (Thr410): then thrombin 0.2 U/ml, FLAG-protein kinase Cζ over-expressing cells
Procedure: as §1
Endothelial cells were plated into fibronectin coated flasks before infection as above. Following infection, cells were serum depleted (0.2% FCS) overnight. Cells were then treated with angiopoietin-1, thrombin and/or bisindolylmaleimide I, as required, lysed in ice-cold lysis buffer (50 mM Tris.HCl, pH 7.4, with 1% NP-40, 150 mM NaCl, 2 mM EGTA, 1 mM NaPO4, 100 mM NaF, 10 mM sodium pyrophosphate and protease inhibitor cocktail). Protein concentrations were assayed using Bradford Reagent (BioRad, Hercules, Calif., USA). Equal amounts of protein were loaded onto 10% acrylamide gels, separated by SDS-PAGE, transferred to PVDF membrane, blocked with 5% skim milk powder and 0.1% Triton-X100 in phosphate buffered saline, and probed with a polyclonal rabbit antibody directed against phosphorylated Thr410 of the activation loop of protein kinase Cζ (Chou, M. M., Hou, W., Johnson, J., Graham, L. K., Lee, M. H., Chen, C. S., Newton, A. C., Schaffhausen, B. S., Toker, A. (1998) Curr Biol. 8:1069-77). This antibody was a generous gift from Dr Alex Toker. After washing, membranes were incubated with anti-rabbit secondary antibody and reactive bands were detected by chemiluminescence (ECL Western Blotting Detection Reagents, Amersham Pharmacia Biotech, Little Chalfont, England, UK). Membranes were stripped using stripping buffer (Re-Blot Plus Western Blot Recycling Kit, Chemicon, Temecula Calif., USA) and re-probed with rabbit anti-protein kinase Cζ immunoaffinity purified IgG (Upstate Biotechnology, Lake Placid N.Y., USA).

[4] = system: protein kinase C isoforms; conditions: cited from earlier work
protein kinase Cλ = experiment: Immunofluorescence staining of protein kinase Cλ localisation in endothelial cell monolayers; format: cell-based, human; conditions: thrombin 0.2 U/ml alone, confluent monolayers
Procedure: as §1
as §2, with “Cells were imaged by epifluorescent microscopy on an Olympus BX-51 microscope (Olympus, Hamburg, Germany) equipped with excitation filters for fluorescein (494 nm) acquired to a Photometrics Cool Snap FX charge-coupled device camera (Roper Scientific GmbH, Germany). Images were adjusted for brightness and contrast using V^++ software (Digital Optics Ltd., Aucldand, New Zealand).” left out

## O=S(=O)(NCCNC/C=C/c1ccc(Br)cc1)c1cccc2cnccc12 [H-89]
[1]; 50 nM, pre-treated 15 mins
  effect on thrombin stimulated endothelial cell permeability increase: has no effect on thrombin induced permeability changes; also recorded: has no effect on thrombin-stimulated permeability increases

## CN(C)CCCn1cc(C2=C(c3c[nH]c4ccccc34)C(=O)NC2=O)c2ccccc21.Cl [bisindolylmaleimide I, Bisindolylmaleimide I hydrochloride]
[1]; 100 nM, pre-treated 15 mins
  effect on thrombin stimulated endothelial cell permeability increase: had no effect on the thrombin-induced increases of endothelial cell permeability
[1]; 6 μM, pre-treated 15 mins, hydrochloride
  effect on thrombin stimulated endothelial cell permeability increase: inhibited thrombin stimulation of endothelial cell permeability
[1]; 6 μM, pre-treated 15 mins, listed as Bisindolylmaleimide I, hydrochloride
  effect on thrombin stimulated endothelial cell permeability increase: blocks thrombin-stimulated permeability increases
Protein kinase Cζ [2]; 6 μM for 15 minutes
  effect on thrombin stimulated protein kinase Cζ relocalisation to the membrane: dramatically decreased
Protein kinase Cζ [3]; 6 μM for 15 minutes
  effect on thrombin stimulated protein kinase Cζ phosphorylation (Thr410): inhibited thrombin stimulated protein kinase Cζ phosphorylation
[4]; 100 nM
  protein kinase C isoforms inhibited: inhibits classical and novel protein kinase C isoforms
[4]; 6 μM
  protein kinase C isoforms inhibited: inhibits all protein cinase C isoforms

## Calphostin C
[1]; 100 nM, pre-treated 15 mins
  effect on thrombin stimulated endothelial cell permeability increase: had no effect on the thrombin-induced increases of endothelial cell permeability; also recorded: does not block thrombin-stimulated permeability increases

## Thrombin
Protein kinase Cζ [2]; thrombin 0.2 U/ml alone, confluent monolayers
  protein kinase Cζ localisation: localized to the cell membrane
Protein kinase Cζ [3]; thrombin 0.2 U/ml for 15 minutes alone
  phosphorylation of over-expressed protein kinase Cζ (Thr410): increased the phosphorylation of over-expressed protein kinase Cζ
Protein kinase Cλ
  protein kinase Cλ localisation: remained evenly distributed

B1: Angiopoietin-1 (protein, UniProt Q15389 16-498, looked up)
Angiopoietin-1: HIGCSNQRRSPENSGRRYNRIQHGQCAYTFILPEHDGNCRESTTDQYNTNALQRDAPHVEPDFSSQKLQHLEHVMENYTQWLQKLENYIVENMKSEMAQIQQNAVQNHTATMLEIGTSLLSQTAEQTRKLTDVETQVLNQTSRLEIQLLENSLSTYKLEKQLLQQTNEILKIHEKNSLLEHKILEMEGKHKEELDTLKEEKENLQGLVTRQTYIIQELEKQLNRATTNNSVLQKQQLELMDTVHNLVNLCTKEGVLLKGGKREEEKPFRDCADVYQAGFNKSGIYTIYINNMPEPKKVFCNMDVNGGGWTVIQHREDGSLDFQRGWKEYKMGFGNPSGEYWLGNEFIFAITSQRQYMLRIELMDWEGNRAYSQYDRFHIGNEKQNYRLYLKGHTGTAGKQSSLILHGADFSTKDADNDNCMCKCALMLTGGWWFDACGPSNLNGMFYTAGQNHGKLNGIKWHYFKGPSYSLRSTTMMIRPLDF
notes: Angiopoietin-1, obtained from Regeneron Inc
[1]; 0.1 μg/ml, pre-treated 30 min
  effect on thrombin stimulated endothelial cell permeability increase: inhibiting thrombin stimulated endothelial cell permeability increases
[1]; 0.1 μg/ml, pre-treated 30 min, listed as Angiopoietin-1
  effect on thrombin stimulated endothelial cell permeability increase: can inhibit the thrombin-induced increase of endothelial cell permeability
Protein kinase Cζ [2]; 0.1 μg/ml for 30 minutes
  effect on thrombin stimulated protein kinase Cζ relocalisation to the membrane: dramatically decreased; also recorded: blocking thrombin stimulated protein kinase Cζ relocalisation
Protein kinase Cζ [3]; 0.1 μg/ml for 30 minutes
  effect on thrombin stimulated protein kinase Cζ phosphorylation (Thr410): inhibited thrombin stimulated protein kinase Cζ phosphorylation; also recorded: blocking thrombin stimulated protein kinase Cζ phoshorylation
